Legend:
[1] = system: THP-1 (acute monocyte leukemia) cells; experiment: Cytotoxicity of NK cells to leukemia cells (THP-1); type: cell-based; conditions: NK cells treated with ponatinib 500 nM for 6 hrs, co-cultured 48 hours
Source text: (§1) IL-2 is a well-known activator of effector cells such as NK cells.

[2] = system: HL-60 (acute promyelocytic leukemia) cells; experiment: Cytotoxicity of NK cells to leukemia cells (HL-60); type: cell-based; conditions: NK cells treated with ponatinib 500 nM for 6 hrs, co-cultured 48 hours
Source text: as §1

[3] = system: KG-1 (acute myelogenous leukemia) cells; experiment: Cytotoxicity of NK cells to leukemia cells (KG-1); type: cell-based; conditions: NK cells treated with ponatinib 500 nM for 6 hrs, co-cultured 48 hours
Source text: as §1

[4] = system: MDA-MB-231 (breast cancer) cells; experiment: Cytotoxicity of NK cells to solid tumor cells (MDA-MB-231); type: cell-based; conditions: NK cells treated with 50 nM Ponatinib for 6 hrs, co-cultured 48 hrs
[5] = system: MIA PaCa-2 (pancreatic cancer) cells; experiment: Cytotoxicity of NK cells to solid tumor cells (MIA PaCa-2); type: cell-based; conditions: NK cells treated with 200 nM Ponatinib for 6 hrs, co-cultured 48 hrs
[6] = system: SNU-245, the biliary tract cancer cell line; experiment: 4 hr cytotoxic activity assay of pretreated NK cells against SNU-245; type: cell-based, human; conditions: FIG. 4; ponatinib 150 nM 24 hrs, washed; E:T 3:1, 1:1, 0.3:1 for 4 hrs
Source text: (§2) NK cells (effector cells) were co-cultured with cancer cells (target cells; SNU-245 and AGS cells) at the effector-to-target (E:T) cell count ratio (3:1, 1:1, 0.3:1) for 4 hrs.

[7] = system: AGS, the stomach cancer cell line; experiment: 4 hr cytotoxic activity assay of pretreated NK cells against AGS; type: cell-based, human; conditions: FIG. 4; ponatinib 150 nM 24 hrs, washed; E:T 3:1, 1:1, 0.3:1 for 4 hrs
Source text: as §2

[8] = system: NK cells; experiment: Annexin V/7-AAD analysis of NK cells co-cultured with K562 cells; type: cell-based; conditions: FIG. 11; ponatinib 150 nM 24 hrs, then K562 cells E:T 5:1 for 4 hrs; vs untreated cells
Method: After incubation, NK cells were collected and analyzed for cell death by annexin-V and 7-AAD analysis.

[9] = system: AGS (the stomach cancer cell line)
[10] = system: MDA-MB-231 (the breast cancer cell line)
[11] = system: human NK cells; conditions: FIG. 9; NK cells treated with ponatinib 50 or 150 nM 24 hrs, tail vein, one day after injection; vs non-treated NK cells
[12] = system: Huh-7.5 (hepatic cell line showing subgenomic and genomic hepatitis C virus RNA replication); experiment: Cytotoxicity of NK cells to virus-transformed cell lines (Huh-7.5); conditions: NK cells treated with ponatinib 150 nM for 16 hours, co-cultured 48 hours
[13] = system: HepG2.2.15 (hepatic cell transformed with hepatitis B virus and producing HBV); experiment: Cytotoxicity of NK cells to virus-transformed cell lines (HepG2.2.15); conditions: NK cells treated with ponatinib 150 nM for 16 hours, co-cultured 48 hours
[14] = system: human NK cells; experiment: NK cell cycle analysis by propidium iodide staining and flow cytometry; conditions: FIG. 12; ponatinib 150 nM for 2 days; vs control NK cells
[15] = system: SNU-387 (the liver cancer cell line); experiment: 2 day cytotoxicity assay of kinase inhibitor pretreated NK cells against SNU-387; conditions: FIG. 7B; pretreatment 24 hrs; E:T 0.5:1, 48 hrs
[16] = system: SNU-245 (the biliary tract cancer cell line); experiment: 2 day cytotoxicity assay against SNU-245 cells (pretreated or formulated NK cells, or ponatinib alone)
[17] = FIG. 5, high concentrations of ponatinib, 24 hrs, E:T 0.5:1 for 2 days
[18] = FIG. 8, ponatinib 150 nM 24 hrs, washed, E:T 0.5:1 for 2 days
[19] = FIG. 8, ponatinib added to target cells without NK cells, 2 days

Cc1ccc(C(=O)Nc2ccc(CN3CCN(C)CC3)c(C(F)(F)F)c2)cc1C#Cc1cnc2cccnn12 [Ponatinib, 3-(2-imidazo[1,2-b]pyridazin-3-ylethynyl)-4-methyl-N-[4-[(4-methylpiperazin-1-yl)methyl]-3-(trifluoromethyl)phenyl]benzamide]
Cytotoxicity of NK Cells to THP-1 Cells ([1]; E:T = 0.1:1, With IL-2): 79 ± 4%
Cytotoxicity of NK Cells to THP-1 Cells ([1]; E:T = 0.1:1, Without IL-2): 20 ± 1%
Cytotoxicity of NK Cells to THP-1 Cells ([1]; E:T = 1:1, With IL-2): 99 ± 0%
Cytotoxicity of NK Cells to THP-1 Cells ([1]; E:T = 1:1, Without IL-2): 83 ± 1%
Cytotoxicity of NK Cells to HL-60 Cells ([2]; E:T = 0.1:1, With IL-2): 76 ± 9%
Cytotoxicity of NK Cells to HL-60 Cells ([2]; E:T = 0.1:1, Without IL-2): 13 ± 3%
Cytotoxicity of NK Cells to HL-60 Cells ([2]; E:T = 1:1, With IL-2): 98 ± 2%
Cytotoxicity of NK Cells to HL-60 Cells ([2]; E:T = 1:1, Without IL-2): 89 ± 4%
Cytotoxicity of NK Cells to KG-1 Cells ([3]; E:T = 0.1:1, With IL-2): 93 ± 1%
Cytotoxicity of NK Cells to KG-1 Cells ([3]; E:T = 0.1:1, Without IL-2): 81 ± 1%
Cytotoxicity of NK Cells to KG-1 Cells ([3]; E:T = 1:1, With IL-2): 99 ± 1%
Cytotoxicity of NK Cells to KG-1 Cells ([3]; E:T = 1:1, Without IL-2): 99 ± 1%
Cytotoxicity of NK Cells to MDA-MB-231 Cells ([4]; E:T = 0.1:1, With IL-2): 28 ± 5%
Cytotoxicity of NK Cells to MDA-MB-231 Cells ([4]; E:T = 0.1:1, Without IL-2): 34 ± 4%
Cytotoxicity of NK Cells to MDA-MB-231 Cells ([4]; E:T = 0.5:1, With IL-2): 59 ± 8%
Cytotoxicity of NK Cells to MDA-MB-231 Cells ([4]; E:T = 0.5:1, Without IL-2): 54 ± 8%
Cytotoxicity of NK Cells to MIA PaCa-2 Cells ([5]; E:T = 0.1:1, With IL-2): 66 ± 5%
Cytotoxicity of NK Cells to MIA PaCa-2 Cells ([5]; E:T = 0.1:1, Without IL-2): 43 ± 8%
Cytotoxicity of NK Cells to MIA PaCa-2 Cells ([5]; E:T = 0.5:1, With IL-2): 100 ± 0%
Cytotoxicity of NK Cells to MIA PaCa-2 Cells ([5]; E:T = 0.5:1, Without IL-2): 78 ± 2%
cytotoxic activity of pretreated NK cells against SNU-245 [6]: strongly enhanced cytotoxicity
cytotoxic activity of pretreated NK cells against AGS [7]: strongly enhanced cytotoxicity
apoptotic NK cell population (Annexin V+/7-AAD− and Annexin V+/7-AAD+) [8]: significantly reduced
necrotic NK cell population (Annexin V−/7-AAD+) [8]: significantly reduced
cytotoxic activity of ponatinib-pretreated NK cells against AGS [9, 17]: decreased
viability of AGS cancer cells co-cultured with NK cells pretreated with ponatinib [9, 18]: significantly decreased
cytotoxic activity of ponatinib treatment alone against AGS [9, 19]: did not show cytotoxic activity
cytotoxic activity of ponatinib-pretreated NK cells against MDA-MB-231 [10, 17]: decreased
viability of MDA-MB-231 cancer cells co-cultured with NK cells pretreated with ponatinib [10, 18]: significantly decreased
cytotoxic activity of ponatinib treatment alone against MDA-MB-231 [10, 19]: did not show cytotoxic activity
total human NK cells in blood of injected mice [11]: more human NK cells
viability of human NK cells in blood of injected mice [11]: higher viability
Cytotoxicity of NK Cells to Hur-7.5 Cells ([12]; E:T = 0.1:1, W/IL-2): 76%
Cytotoxicity of NK Cells to Hur-7.5 Cells ([12]; E:T = 0.1:1, W/O IL-2): 48%
Cytotoxicity of NK Cells to Hur-7.5 Cells ([12]; E:T = 0.5:1, W/IL-2): 96%
Cytotoxicity of NK Cells to Hur-7.5 Cells ([12]; E:T = 0.5:1, W/O IL-2): 78%
Cytotoxicity of NK Cells to HepG2.2.15 Cells ([13]; E:T = 0.1:1, With IL-2): 75%
Cytotoxicity of NK Cells to HepG2.2.15 Cells ([13]; E:T = 0.1:1, Without IL-2): 59%
Cytotoxicity of NK Cells to HepG2.2.15 Cells ([13]; E:T = 0.5:1, With IL-2): 88%
Cytotoxicity of NK Cells to HepG2.2.15 Cells ([13]; E:T = 0.5:1, Without IL-2): 74%
fraction of G0/G1 phases of NK cells [14]: concomitant decrease
fraction of S and G2/M phases of NK cells [14]: increased
anti-cancer cytotoxicity of kinase inhibitor pretreated NK cells against SNU-387 vs untreated NK cells [15]: higher anti-cancer cytotoxicity
anti-cancer cytotoxicity of kinase inhibitor pretreated NK cells against SNU-245 vs untreated NK cells ([16]; FIG. 7A, pretreatment 24 hrs, E:T 0.5:1, 48 hrs): higher anti-cancer cytotoxicity
viability of SNU-245 cancer cells co-cultured with NK cells pretreated with ponatinib [16, 18]: significantly decreased
cytotoxic activity of ponatinib treatment alone against SNU-245 [16, 19]: did not show cytotoxic activity
